The results in this text go back to patent US12492188B2, “1H-benzo[D]imidazole derivatives as TLR9 inhibitors for the treatment of fibrosis” (BRISTOL-MYERS SQUIBB COMPANY, priority 2020, dated 2025).

Read-outs that look alike come from different tables or passages of the source.

Common to all, as to assay type: cell-based
For one assay, the target named is T1, human TLR9 (Homo sapiens, UniProt Q9NR96).
T1 construct: host or cells: HEK-Blue cells (HEK293-derived reporter line)
T1 sequence (Q9NR96 26-1032): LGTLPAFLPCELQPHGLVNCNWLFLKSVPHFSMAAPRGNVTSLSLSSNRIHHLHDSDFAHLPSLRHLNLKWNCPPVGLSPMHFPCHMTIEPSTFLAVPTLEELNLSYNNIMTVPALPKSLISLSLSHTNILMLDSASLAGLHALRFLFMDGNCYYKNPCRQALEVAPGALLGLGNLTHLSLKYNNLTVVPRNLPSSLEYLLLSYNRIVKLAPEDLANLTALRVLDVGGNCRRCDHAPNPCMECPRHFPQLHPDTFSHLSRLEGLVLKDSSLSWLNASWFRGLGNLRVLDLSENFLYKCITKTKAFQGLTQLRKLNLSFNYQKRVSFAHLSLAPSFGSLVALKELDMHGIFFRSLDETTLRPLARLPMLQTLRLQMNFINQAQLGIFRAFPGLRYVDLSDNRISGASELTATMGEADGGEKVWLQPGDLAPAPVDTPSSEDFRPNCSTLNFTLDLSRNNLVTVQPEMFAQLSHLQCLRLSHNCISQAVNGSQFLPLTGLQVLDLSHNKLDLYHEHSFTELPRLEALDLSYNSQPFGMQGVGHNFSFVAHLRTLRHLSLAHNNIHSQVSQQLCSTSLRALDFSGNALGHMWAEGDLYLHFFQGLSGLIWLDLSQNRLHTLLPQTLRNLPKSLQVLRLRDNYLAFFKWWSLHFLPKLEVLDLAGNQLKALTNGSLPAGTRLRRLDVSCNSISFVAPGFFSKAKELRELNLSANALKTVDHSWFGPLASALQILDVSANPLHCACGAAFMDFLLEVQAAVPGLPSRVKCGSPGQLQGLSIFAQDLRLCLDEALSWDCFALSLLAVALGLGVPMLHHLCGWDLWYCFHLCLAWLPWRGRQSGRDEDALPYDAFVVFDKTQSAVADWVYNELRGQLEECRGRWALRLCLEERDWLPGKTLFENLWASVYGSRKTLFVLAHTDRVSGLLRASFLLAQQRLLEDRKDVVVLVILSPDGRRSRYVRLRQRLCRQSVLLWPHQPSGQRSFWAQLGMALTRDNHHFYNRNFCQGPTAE
The assay can be described thus: TLR9 inhibition reporter assay (HEK-Blue cells, secreted embryonic alkaline phosphatase reporter). The procedure, abridged:
(§1)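 HEK-Blue cells expressing human TLR7, TLR8 or TLR9 with an NF-κB/AP-1-driven SEAP reporter were pretreated with compound (0.05 nM–50 μM final) for 30 min at room temperature. Agonists were gardiquimod 7.5 μM for TLR7, R848 15.9 μM for TLR8 and ODN2006 5 nM for TLR9. SEAP was read after 22 h at 37 °C, and inhibition was calculated relative to agonist-plus-DMSO and known-inhibitor controls.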
For orientation: A reporter such as luciferase makes a cellular process visible.

For another assay, the target named is T2, human TLR7 (Homo sapiens, UniProt Q9NYK1).
T2 construct: host or cells: HEK-Blue cells (HEK293-derived reporter line)
T2 sequence (Q9NYK1 27-1049): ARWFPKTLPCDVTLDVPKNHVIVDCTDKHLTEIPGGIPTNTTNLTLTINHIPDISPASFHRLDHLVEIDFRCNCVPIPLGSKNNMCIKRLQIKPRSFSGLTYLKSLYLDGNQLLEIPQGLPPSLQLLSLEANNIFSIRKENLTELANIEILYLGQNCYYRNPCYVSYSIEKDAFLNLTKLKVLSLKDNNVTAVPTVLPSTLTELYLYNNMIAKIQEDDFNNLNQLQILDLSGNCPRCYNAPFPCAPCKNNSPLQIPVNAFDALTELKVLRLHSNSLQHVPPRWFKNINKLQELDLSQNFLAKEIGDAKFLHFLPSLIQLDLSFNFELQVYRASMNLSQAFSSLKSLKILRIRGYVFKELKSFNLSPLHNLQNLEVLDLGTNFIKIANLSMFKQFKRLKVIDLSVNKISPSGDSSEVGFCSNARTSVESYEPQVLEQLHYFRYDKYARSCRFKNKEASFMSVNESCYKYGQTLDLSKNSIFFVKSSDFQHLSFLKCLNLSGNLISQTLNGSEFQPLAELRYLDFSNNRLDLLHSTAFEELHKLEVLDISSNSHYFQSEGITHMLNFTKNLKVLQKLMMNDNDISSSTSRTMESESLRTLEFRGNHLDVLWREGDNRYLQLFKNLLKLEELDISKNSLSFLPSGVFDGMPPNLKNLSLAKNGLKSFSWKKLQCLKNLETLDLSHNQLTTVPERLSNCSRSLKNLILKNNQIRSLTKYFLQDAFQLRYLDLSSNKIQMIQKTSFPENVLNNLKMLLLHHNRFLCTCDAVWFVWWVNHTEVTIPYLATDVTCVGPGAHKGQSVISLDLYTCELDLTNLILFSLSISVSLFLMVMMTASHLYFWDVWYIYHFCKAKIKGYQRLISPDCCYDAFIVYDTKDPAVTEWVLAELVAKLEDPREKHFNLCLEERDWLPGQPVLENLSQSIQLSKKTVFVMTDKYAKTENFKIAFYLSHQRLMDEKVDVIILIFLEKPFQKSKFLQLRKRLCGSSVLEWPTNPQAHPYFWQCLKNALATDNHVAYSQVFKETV
The assay can be described thus: TLR7 inhibition reporter assay (HEK-Blue cells, secreted embryonic alkaline phosphatase reporter). Conditions: HEK-Blue cells overexpressing human TLR7, stimulated with gardiquimod 7.5 μM; read-out: TLR 7 IC50. The procedure, abridged: as §1

A further assay concerns the target T3, human TLR8 (Homo sapiens, UniProt Q9NR97).
T3 construct: host or cells: HEK-Blue cells (HEK293-derived reporter line)
T3 sequence (Q9NR97 27-1041): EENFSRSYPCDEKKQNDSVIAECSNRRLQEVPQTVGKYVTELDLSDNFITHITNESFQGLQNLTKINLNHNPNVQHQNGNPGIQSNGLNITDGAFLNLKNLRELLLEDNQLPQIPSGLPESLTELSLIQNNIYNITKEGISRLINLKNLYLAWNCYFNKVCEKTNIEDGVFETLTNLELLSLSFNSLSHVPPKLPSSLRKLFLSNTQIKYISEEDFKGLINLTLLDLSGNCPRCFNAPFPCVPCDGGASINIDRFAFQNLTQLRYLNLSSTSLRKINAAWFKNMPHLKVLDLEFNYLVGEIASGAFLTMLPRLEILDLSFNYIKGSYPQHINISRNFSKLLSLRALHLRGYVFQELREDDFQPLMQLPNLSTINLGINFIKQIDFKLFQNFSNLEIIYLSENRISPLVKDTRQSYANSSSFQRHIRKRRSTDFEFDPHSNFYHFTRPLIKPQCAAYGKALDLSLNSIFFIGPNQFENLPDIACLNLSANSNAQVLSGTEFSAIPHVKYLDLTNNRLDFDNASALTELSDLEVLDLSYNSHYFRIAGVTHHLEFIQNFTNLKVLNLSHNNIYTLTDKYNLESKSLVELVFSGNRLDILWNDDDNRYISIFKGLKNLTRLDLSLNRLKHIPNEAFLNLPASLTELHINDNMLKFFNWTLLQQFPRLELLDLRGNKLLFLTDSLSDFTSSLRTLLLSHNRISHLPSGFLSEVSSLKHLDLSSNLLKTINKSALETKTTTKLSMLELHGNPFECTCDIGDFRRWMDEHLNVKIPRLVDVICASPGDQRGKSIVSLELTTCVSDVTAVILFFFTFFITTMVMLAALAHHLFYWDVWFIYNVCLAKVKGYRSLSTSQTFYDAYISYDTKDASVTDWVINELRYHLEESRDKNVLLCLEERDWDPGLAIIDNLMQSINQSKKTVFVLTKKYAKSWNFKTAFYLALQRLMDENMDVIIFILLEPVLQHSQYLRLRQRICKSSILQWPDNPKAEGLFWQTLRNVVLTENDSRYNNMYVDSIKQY
The assay can be described thus: TLR8 inhibition reporter assay (HEK-Blue cells, secreted embryonic alkaline phosphatase reporter). Conditions: HEK-Blue cells overexpressing human TLR8, stimulated with R848 15.9 μM; read-out: TLR 8 IC50. The procedure, abridged: as §1

Where [1] appears, read: HEK-Blue cells overexpressing human TLR9, stimulated with ODN2006 5 nM, read-out: TLR 9 IC50.

One may read the IC50 as the point on the concentration scale where inhibition reaches its midpoint. `COCCN1C2CCC1CC(N1CCC(c3ccc4c(nc(-c5ccc(S(C)(=O)=O)cc5)n4C)c3F)CC1)C2` (single isomer, unassigned) [Example 200, 4-fluoro-5-(1-(8-(2-methoxyethyl)-8-azabicyclo[3.2.1]octan-3-yl)piperidin-4-yl)-1-methyl-2-(4-(methylsulfonyl)phenyl)-1H-benzo[d]imidazole]: the IC50 was 380 nM against human TLR9, 380 nM at human TLR9 (setting [1]), 47800 nM on human TLR7 and > 50000 nM at human TLR8.
Regarding `Cn1c(-c2ccc(S(C)(=O)=O)cc2)nc2cc(C3CCN(C4CC5CCC(C4)N5C4COC4)CC3)cc(F)c21` (single isomer, unassigned) [Example 213, 7-fluoro-1-methyl-2-(4-(methylsulfonyl)phenyl)-5-(1-(8-(oxetan-3-yl)-8-azabicyclo[3.2.1]octan-3-yl)piperidin-4-yl)-1H-benzo[d]imidazole], the IC50 against human TLR9 was 340 nM; on human TLR9 (setting [1]) it was 335 nM; at human TLR7 it was > 50000 nM; on human TLR8, > 50000 nM.
Regarding `Cn1c(-c2ccc(S(C)(=O)=O)cc2)nc2cc(C3CCN(C4CC5CCC(C4)N5C4COC4)CC3)cc(F)c21` (single isomer, unassigned) [Example 214, 7-fluoro-1-methyl-2-(4-(methylsulfonyl)phenyl)-5-(1-(8-(oxetan-3-yl)-8-azabicyclo[3.2.1]octan-3-yl)piperidin-4-yl)-1H-benzo[d]imidazole], the IC50 on human TLR9 is 4700 nM; at human TLR9 (setting [1]), 4660 nM; at human TLR7, > 50000 nM; at human TLR8, > 50000 nM.
For the molecule `Cn1c(-c2ccc(S(C)(=O)=O)cc2)nc2cc(C3CCN(C4CC5CCC(C4)N5C4CCC4)CC3)cc(F)c21` (single isomer, unassigned) [Example 215, 5-(1-(8-cyclobutyl-8-azabicyclo[3.2.1]octan-3-yl)piperidin-4-yl)-7-fluoro-1-methyl-2-(4-(methylsulfonyl)phenyl)-1H-benzo[d]imidazole], the half-inhibitory concentration (IC50) is 70 nM at human TLR9, 70 nM at human TLR9 (setting [1]), 17000 nM at human TLR7 and > 50000 nM on human TLR8.
As to `Cn1c(-c2ccc(S(C)(=O)=O)cc2)nc2cc(C3CCN(C4CC5CCC(C4)N5C4CCC4)CC3)cc(F)c21` (single isomer, unassigned) [Example 216, 5-(1-(8-cyclobutyl-8-azabicyclo[3.2.1]octan-3-yl)piperidin-4-yl)-7-fluoro-1-methyl-2-(4-(methylsulfonyl)phenyl)-1H-benzo[d]imidazole], the half-maximal inhibitory concentration (IC50) is 270 nM at human TLR9, 269 nM on human TLR9 (setting [1]), 23200 nM on human TLR7 and > 50000 nM at human TLR8.
The matching figures for `CC(C)CN1C2CCC1CC(N1CCC(c3ccc4nc(-c5ccc(S(C)(=O)=O)cc5)[nH]c4c3F)CC1)C2` (single isomer, unassigned) [Example 219, 7-fluoro-6-(1-(8-isobutyl-8-azabicyclo[3.2.1]octan-3-yl)piperidin-4-yl)-2-(4-(methylsulfonyl)phenyl)-1H-benzo[d]imidazole]: 65 nM, 65 nM, 18500 nM and > 50000 nM.
Consider `CC(C)CN1C2CCC1CC(N1CCC(c3ccc4nc(-c5ccc(S(C)(=O)=O)cc5)[nH]c4c3F)CC1)C2` (single isomer, unassigned) [Example 220, 7-fluoro-6-(1-(8-isobutyl-8-azabicyclo[3.2.1]octan-3-yl)piperidin-4-yl)-2-(4-(methylsulfonyl)phenyl)-1H-benzo[d]imidazole], for which the IC50 against human TLR9 is 680 nM; on human TLR9 (setting [1]), 683 nM; at human TLR7 it was 41900 nM; at human TLR8, > 50000 nM.
For `CC(C)CN1C2CCC1CC(N1CCC(c3cc4c(cc3F)nc(-c3ccc(S(C)(=O)=O)cc3)n4C)CC1)C2` (single isomer, unassigned) [Example 228, 5-fluoro-6-(1-(8-isobutyl-8-azabicyclo[3.2.1]octan-3-yl)piperidin-4-yl)-1-methyl-2-(4-(methylsulfonyl)phenyl)-1H-benzo[d]imidazole], the IC50 worked out at 69 nM against human TLR9, 69 nM on human TLR9 (setting [1]), 1400 nM on human TLR7 and 16700 nM on human TLR8.
Regarding `CC(C)CN1C2CCC1CC(N1CCC(c3cc4c(cc3F)nc(-c3ccc(S(C)(=O)=O)cc3)n4C)CC1)C2` (single isomer, unassigned) [Example 229, 5-fluoro-6-(1-(8-isobutyl-8-azabicyclo[3.2.1]octan-3-yl)piperidin-4-yl)-1-methyl-2-(4-(methylsulfonyl)phenyl)-1H-benzo[d]imidazole], the 50% inhibitory concentration (IC50) at human TLR9 is 95 nM; on human TLR9 (setting [1]), 95 nM; at human TLR7, 43200 nM; at human TLR8, > 50000 nM.
